We go through one molecule from patent US20130131161A1, “METHODS AND COMPOSITIONS FOR CARDIOVASCULAR DISEASES AND CONDITIONS” (priority 2009, published 2013).

Each structure is given as a SMILES string.

In this test the test system is Human umbilical vein endothelial cells (HUVECs). In words: Comparison of LA-419 and ISDN: NO and ONOO− release from HUVECs measured with tandem electrochemical nanosensors (Example 1). The test is classed as cell-based. The settings on record: for NO release (mean ± S.D.) / ONOO− release (mean ± S.D.): 500 nM, 12 hours, then CaI (1.0 μM). The protocol:
Human umbilical vein endothelial cells (HUVECs) were isolated into primary cultures and purchased as proliferating cells from Clonetics (San Diego, Calif.). All cell culture donors were healthy, with no pregnancy or prenatal complications. The cultured cells were incubated in 95% air/5% CO2 at 37° C. and passage by an enzymatic (trypsin) procedure. The confluent cells (4 to 5×10^5 cells per 35-mm dish) were placed with minimum essential medium containing 3 mM L-arginine and 0.1 mM BH4 [(6R)-5,6,7,8-tetrahydrobiopterin]. Before the experiments, the cells (from second or third passage) were rinsed twice with Tyrode-HEPES buffer with 1.8 mM CaCl2. ISDN was obtained from Sigma-Aldrich.
Concurrent measurements of NO and ONOO^− were carried out with tandem electrochemical nanosensors combined into one working unit with a total diameter of 200-500 nm (FIG. 1). Their design was based on previously developed and well-characterized chemically modified carbon-fiber technology (Malinski and Taha, 1992; Lvovich and Scheeline, 1997). Each of the nanosensors was made by depositing a sensing material on the tip of a carbon fiber (length 4-5 μm, diameter 0.2-0.5 μm). The fibers were sealed with nonconductive epoxy and electrically connected to copper wires with conductive silver epoxy. A conductive film of polymeric nickel (II) tetrakis(3-methoxy-4-hydroxyphenyl)porphyrin for the NO-sensor and polymeric film of Mn (III) [2.2]paracyclophanylporphyrin was used for the ONOO^−-sensor.
A module of NO/ONOO^− nanosensors (diameter 1-2 μm) with a platinum wire (0.1 mm) counter electrode and saturated calomel reference electrode (SCE) were applied. Differential pulse voltammetry (DPV) and amperometry were performed with a computer-based Gamry VFP600 multichannel potentiostat. DPV was used to measure the basal NO and ONOO^− concentrations, and amperometry was used to measure changes in NO and ONOO^− concentrations from its basal level with time. The DPV current at the peak potential characteristic for NO oxidation (0.65 V) and ONOO^− reduction (−0.45 V) was directly proportional to the local concentrations of these compounds in the immediate vicinity of the sensor. Linear calibration curves (current vs. concentration) were constructed for each sensor from 10 nM to 3 μM before and after measurements with aliquots of NO and ONOO^− standard solutions, respectively. The detection limit of the sensors was 1.0 nM.
The quantification of each analyte (concentration in nM) was performed using a maximum current from amperograms and standard calibration curves. A reproducibility of measurements with nanosensors is relatively high (between 5-12%). […] The sensors were slowly raised 5±2 μm from the surface of a single endothelial cell. The eNOS agonist, calcium ionophore A23187 (CaI) as well as the different drugs were then added to the surrounding media at the cell surface with a nanoinjector that was also positioned by a computer controlled-micromanipulator.
The HUVEC preparation is stable over the course of these experiments with the cells remaining viable in culture for >24 hours. Under non-stimulating conditions, basal levels of NO release are very low (<30 nM). Measurement of NO release as a function of treatment was conducted in individual endothelial cells. Multiple measurements of NO release can be conducted on single cells following a brief refractory period. For robust statistical analysis, separate cells were used for each concentration and type of drug used in these analyses.

The mark [1] stands for this setting: HUVECs from Non-Hispanic Whites.

Turning to `CC(=O)SC1COC2C(O[N+](=O)[O-])COC12` (stereo not drawn) [LA-419, S-(6-Nitro-oxi-hexahydro-furo[3,2-b]furan-3-1-il)thioacetate], under “HUVECs from African Americans”, the “NO release (mean ± S.D.)” value is reported as 253 ± 15 nM and the “ONOO− release (mean ± S.D.)” value is reported as 532 ± 25 nM. In addition, under setting [1], the “NO release (mean ± S.D.)” value was 409 ± 30 nM and the “ONOO− release (mean ± S.D.)” value turned out to be 307 ± 11 nM. Besides, the “effect on NO release” value (HUVECs from both non-Hispanic whites and African Americans, identical conditions) is “small increase”. For the same molecule, under “HUVECs, 12 h treatment”, the “NO/ONOO− ratio versus control samples” value is “not significantly different from control samples”.
